This passage reports IC50 and bioavailability results from patent EP4775208A1, “USE OF PRMT5 INHIBITOR IN TREATMENT OF TUMORS OR CANCERS” (Apeiron Therapeutics (Hong Kong) Ltd., priority 2023, dated 2025).

One data set concerns LN18 MTAP(-/-) cells. Put plainly: Inhibition of proliferation of LN18 MTAP(-/-) cells (CellTiter-Glo). As to conditions: Homo sapiens, LN-18, 168 h, cell proliferation, 7 days. The data set is classed as cell-based. On the procedure:
Test 5: Assay for Inhibitory Activity of Compounds against LN18 MTAP(-/-) Cell Proliferation
Materials and Cells: The LN18 MTAP(-/-) cell line was provided by Cobioer Biosciences (China). Cell culture media, fetal bovine serum (FBS), and penicillin-streptomycin were purchased from Thermo Fisher Scientific (USA). 384-well plates were purchased from PerkinElmer (USA). The CellTiter-Glo assay kit was purchased from Promega (USA).
Cell Culture: LN18 MTAP(-/-) cells were cultured in a medium supplemented with 10% fetal bovine serum (FBS) and 1% penicillin-streptomycin at 37°C with 5% CO2. Only cells in the logarithmic growth phase were used for experiments.
(§1) Cell Proliferation Inhibition Assay: The antiproliferative activity of the compounds against LN18 MTAP(-/-) cells was assessed using the CellTiter-Glo assay kit. Cell suspensions were adjusted to the appropriate density and seeded into 384-well plates at a volume of 40 µL per well, then incubated overnight at 37°C with 5% CO2. Compounds (40 nL) were added to each well to achieve final concentrations ranging from 0 to 1,000 nM (starting concentration 1,000 nM, 3-fold serial dilutions, 9 dose points), with a final DMSO concentration of […]. The cell plates were incubated at 37°C with 5% CO2 for 7 days. Subsequently, 40 µL of CellTiter-Glo reagent was added to measure cell viability.
(Cellular ATP, detected with luciferase, serves as a proxy for viable cell number.)

Data set [1] concerns LN18 MTAP-overexpressing cells. As to the kind of experiment: Inhibition of proliferation of LN18 MTAP-overexpressing cells (CellTiter-Glo). The settings on record: Homo sapiens, LN-18, 168 h, cell proliferation, 7 days. It is filed as cell-based.
Description: Test 6: Assay for Inhibitory Activity of Compounds against LN18 MTAP-Overexpressing Cell Proliferatio
Materials and Cells: The LN18 MTAP-overexpressing cell line was purchased from Cobioer Biosciences (China). Cell culture media, fetal bovine serum (FBS), and penicillin-streptomycin were purchased from Thermo Fisher Scientific (USA). 384-well plates were purchased from PerkinElmer (USA). The CellTiter-Glo assay kit was purchased from Promega (USA).
Cell Culture: LN18 MTAP-overexpressing cells were cultured in a medium supplemented with 10% fetal bovine serum (FBS) and 1% penicillin-streptomycin at 37°C with 5% CO2. Only cells in the logarithmic growth phase were used for experiments.
as §1, with “MTAP-overexpressing” for “MTAP(-/-)”, “10,000” for “1,000”

A further data set has as its system U87MG MTAP(-/-) cells. As to the kind of experiment: Inhibition of proliferation of U87MG MTAP(-/-) cells (CellTiter-Glo). It is filed as cell-based. The settings on record: cell proliferation, 6 days. Here is the method:
Test 7: Assay for Inhibitory Activity of Compounds against U87MG MTAP(-/-) Cell Proliferation
Materials and Cells: The U87MG MTAP(-/-) cell line was purchased from ATCC (USA). Cell culture media, fetal bovine serum (FBS), and penicillin-streptomycin were purchased from Thermo Fisher Scientific (USA). 384-well plates were purchased from PerkinElmer (USA). The CellTiter-Glo assay kit was purchased from Promega (USA).
Cell Culture: U87MG MTAP(-/-) cells were cultured in a medium supplemented with 10% fetal bovine serum (FBS) and 1% penicillin-streptomycin at 37°C with 5% CO2. Only cells in the logarithmic growth phase were used for experiments.
Cell Proliferation Inhibition Assay: The antiproliferative activity of the compounds against U87MG MTAP(-/-) cells was assessed using the CellTiter-Glo assay kit. Cell suspensions were adjusted to the appropriate density and seeded into 384-well plates at a volume of 40 µL per well, then incubated overnight at 37°C with 5% CO2. Compounds (40 nL) were added to each well to achieve final concentrations ranging from 0 to 10,000 nM (starting concentration 10,000 nM, 3-fold serial dilutions, 10 dose points), with a final DMSO concentration of […]. The cell plates were incubated at 37°C with 5% CO2 for 6 days. Subsequently, 40 µL of CellTiter-Glo reagent was added to measure cell viability. Paclitaxel was used as a control compound.

In data set [2] the test system is HCT-116 MTAP(-/-) deficient cells. Put plainly: Inhibition of proliferation of HCT-116 MTAP(-/-) deficient cells (Cell-Titer Glo). The data set is classed as cell-based. The settings on record: 8 days. In a few lines: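 Cells in log-phase growth, RPMI-1640 with 10% FBS, seeded and left overnight at 37°C, 5% CO2. Compound tested at 0–10,000 nM (10 points, 3-fold, 0.1% DMSO) for 8 days at 37°C, 5% CO2. Viability read by CellTiter-Glo luminescence.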

Data set [3] relates to HCT-116 MTAP wild-type cells. As to the kind of experiment: Inhibition of proliferation of HCT-116 MTAP wild-type cells (Cell-Titer Glo). It is filed as cell-based. The settings on record: 8 days. In a few lines: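 MTAP wild-type HCT-116 cells were seeded, cultured overnight and then exposed to compound from 10,000 nM down in a 10-point, 3-fold series (0.1% DMSO). Plates were incubated 8 days at 37°C, 5% CO2. Proliferation was read by Cell-Titer Glo viability luminescence.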

Data set [4] can be described thus: Mouse pharmacokinetic experiment (IV and PO, plasma). The data set is classed as in vivo, ICR male mice. As to conditions: male, mouse, plasma; ICR mice, PO(10mg/kg) vs IV(3mg/kg); read-out: Bioavailability F (%). On the procedure: II. Mouse Pharmacokinetic Experiment
The compounds used in this experiment are specific embodiments of the present invention, with reference to compound AMG473 as an example from Amgen's patent WO 2022/169948A1, identified as example 473.
ICR male mice, N=3/group; sourced from Zhejiang Vital River Laboratory Animal Technology Co., Ltd.
3. Drug Preparation and Administration
Single oral (PO) administration to ICR mice: Compounds were dissolved in dimethyl sulfoxide, added to polyethylene glycol 400 and sterile water, and then adjusted to a clear solution with a small amount of 1 mol/L hydrochloric acid. After overnight fasting, the mice were orally gavaged with a dose of 10 mg/kg. Single intravenous (IV) administration to ICR mice: Compounds were dissolved in dimethyl sulfoxide, added to polyethylene glycol 400 and sterile water, and then adjusted to a clear solution with a small amount of 1 mol/L hydrochloric acid. After overnight fasting, the mice received tail vein injections with a dose of 3 mg/kg.
Approximately 30 µL/time point blood samples were collected via the tail vein. Potassium ethylenediaminetetraacetate was used as an anticoagulant, and samples were centrifuged at 4000 g/min for 5 minutes at 4°C within 1 hour. Blood sampling time points were 0.0833 (IV), 0.25, 0.5, 1, 2, 4, 6, 8, 24 hours. Samples were stored in a -20°C freezer.
Plasma samples (30µL, 10µL sample + 20µL blank plasma) were mixed with 200µL ice-cold acetonitrile containing internal standards. After vortexing for 30 seconds, samples were centrifuged at 4000g/min for 20 minutes. One hundred microliters of the supernatant were transferred to a 96-well plate, followed by the addition of 200µL ultrapure water. After vortexing for 30 seconds, 5µL or 10µL were injected into LC-MS/MS for analysis. Table 7: Pharmacokinetic Data

Usually IC50 stands for the midpoint of a concentration-inhibition curve. Low readings indicate higher potency, high ones lower potency. A word on the bioavailability: it is dose-corrected exposure relative to a reference, in per cent.

As for `CN(C(=O)c1cc2c(cc1C#N)nc(N)c1cncn12)[C@@H]1COc2cc(C(F)(F)F)ccc21` [Example 14, (S)-4-amino-7-cyano-N-methyl-N-(6-(trifluoromethyl)-2,3-dihydrobenzofuran-3-yl)imi dazo[1,5-a]quinoxaline-8-carboxamide], the IC50 was determined as 5.56 nM in the data set on LN18 MTAP(-/-) cells; 898 nM in data set [1]; 79.5 nM with U87MG MTAP(-/-) cells (Homo sapiens, U-87 MG, 144 h).

`[2H]C([2H])([2H])N(C(=O)c1cc2c(cn1)nc(N)c1cncn12)[C@@H]1COc2cc(C(F)(F)F)ccc21` [Example 75, (S)-4-amino-N-(methyl-d3)-N-(6-(trifluoromethyl)-2,3-dihydrobenzofuran-3-yl)imidazo[1,5-a]pyrido[3,4-e]pyrazine-8-carb oxamide]: the IC50 in data set [2] (Homo sapiens, HCT-116, 192 h) came out at 7.3 nM; in data set [3] (Homo sapiens, HCT-116, 192 h), 1170 nM; with U87MG MTAP(-/-) cells (Homo sapiens, U-87 MG, 144 h), 72.1 nM.

For the molecule `CN(C(=O)c1ccc2nc(N)c3cncn3c2c1)[C@@H]1COc2cc(C(F)(F)F)ccc21` [Example 79, (S)-4-amino-N-methy 1-N-(6-(trifluoromethyl)-2,3-dihydrobenzofuran-3-yl)imidazo[1,5-a]quinoxaline-8-carbo xamide-3-d], the half-maximal inhibitory concentration (IC50) is 5.6 nM in data set [2], 1300 nM in data set [3] and 83.3 nM in the data set with U87MG MTAP(-/-) cells.

Regarding `COc1ccc2c(c1)OC[C@H]2N(C)C(=O)c1cc2c(cc1F)nc(N)c1cncn12` [Example 80, (S)-4-amino-7-fluoro-N-(6-methoxy-2,3-dihydrobenzofuran-3-yl)-N-methylimidazo[1,5-a]quinoxaline-8-carboxamide], the 50% inhibitory concentration (IC50) in data set [2] (Homo sapiens, HCT-116, 192 h) was determined as 39.3 nM; in data set [3] (Homo sapiens, HCT-116, 192 h), 9170 nM; with U87MG MTAP(-/-) cells (Homo sapiens, U-87 MG, 144 h) it was 376 nM.

For `CN(C(=O)c1cc2c(cc1F)nc(N)c1cncn12)[C@@H]1COc2cc(-c3ccnn3C)ccc21` [Example 117, (S)-4-amino-7-fluoro-N-methyl-N-(6-(1-methyl-1H-pyrazol-5-yl) -2,3-dihydrobenzofuran-3-yl)imidazo[1,5-a] quinoxaline-8-carbox amide], the half-inhibitory concentration (IC50) in data set [2] (Homo sapiens, HCT-116, 192 h) was 6.6 nM; in data set [3] (Homo sapiens, HCT-116, 192 h), 617 nM; with U87MG MTAP(-/-) cells (Homo sapiens, U-87 MG, 144 h), 61.3 nM.

On to `Cc1cc(-c2ccc3c(c2)OC[C@H]3N(C)C(=O)c2cc3c(cc2F)nc(N)c2cncn23)on1` [Example 119, (S)-4-amino-7-fluoro-N-methyl-N-(6-(3-methylisoxazol-5-yl)-2,3-dihydrobenzofuran-3-yl)imidazo[1,5-a]qui noxaline-8-carboxamide], for which the IC50 was 13.5 nM in data set [2] (Homo sapiens, HCT-116, 192 h); 1310 nM in data set [3] (Homo sapiens, HCT-116, 192 h); 101 nM in the data set on U87MG MTAP(-/-) cells (Homo sapiens, U-87 MG, 144 h).

Take `COC(=O)c1ccc2c(c1)OC[C@H]2N(C)C(=O)c1ccc2nc(N)c3cncn3c2c1` [Example 122, methyl (S)-3-(4-amino-N-methylimidazo[1,5-a]quinoxaline-8-carboxamido)-2,3-dihydrobenzofuran-6-carboxylate]: the IC50 is 50.6 nM in data set [2] (Homo sapiens, HCT-116, 192 h); above 10000 nM in data set [3] (Homo sapiens, HCT-116, 192 h); 777 nM in the data set on U87MG MTAP(-/-) cells (Homo sapiens, U-87 MG, 144 h).

For `CCN(C(=O)c1cc2c(cc1F)nc(N)c1cncn12)[C@@H]1COc2cc(C(F)(F)F)ccc21` [Example 124, (S)-4-amino-N-ethyl-7-fluoro-N-(6-(trifluor omethyl)-2,3-dihydrobenzofuran-3-yl)imid azo[1,5-a]quinoxaline-8-carboxamide], the half-maximal inhibitory concentration (IC50) in data set [2] (Homo sapiens, HCT-116, 192 h) was 6.5 nM; in data set [3] (Homo sapiens, HCT-116, 192 h), 634 nM; in the data set with U87MG MTAP(-/-) cells (Homo sapiens, U-87 MG, 144 h), 64.4 nM.

For the molecule `CN(C(=O)c1ccc2nc(N)c3cncn3c2c1)[C@@H]1COc2cc(C(F)(F)C(F)(F)F)ccc21` [Example 130, (S)-4-amino-N-methy 1-N-(6-(perfluoroethyl)-2,3-dihydrobenzofuran-3-yl)imidazo[1,5-a]quinoxaline-8-carbox amide], the half-inhibitory concentration (IC50) in data set [2] (Homo sapiens, HCT-116, 192 h) was found to be 5.8 nM; in data set [3] (Homo sapiens, HCT-116, 192 h), 1290 nM. The bioavailability in data set [4] was determined as 77.5%.

“(S)-4-amino-7-fluoro-N-methyl-N-(6-(1-me thyl-1H-pyrazol-4-yl) -2,3-dihydrobenzofura n-3-yl)imidazo[1,5-a] quinoxaline-8-carbox amide [Example 34]”: the results for the IC50 (in data set [2]; in data set [3]; in the data set on U87MG MTAP(-/-) cells) were 29.6 nM, 6570 nM and 179 nM, respectively.

“(S)-4-amino-N-methyl-N-(6-(trifluoromethyl)-2,3-dihydrobenzofuran-3-yl)imidazo[1,5-a]quinoxaline-8-carboxamide-1-d [Example 78]”: the IC50 in data set [2] amounted to 7.1 nM; in data set [3], 2070 nM; with U87MG MTAP(-/-) cells it was 211 nM.
